{"source": "patent US20190388389A1", "about": "“METHODS AND COMPOSITIONS OF CARNOSOL FOR INHIBITING UVB-INDUCED SKIN DAMAGE” (Ohio University, priority 2017, published 2019)", "key": {"[1]": {"test_system": "NF-κB", "test": "Electrophoretic mobility shift assay (EMSA), HaCaT nuclear extract", "assay_type": "cell-based, Human", "details": "20 μM carnosol; for NF-κB activity induction (EMSA): UVB alone about 2.6 fold", "method": "FIGS. 7A-7F: Carnosol inhibited UVB-induced NF-κB activation. Cells were exposed to UVB radiation in the presence or absence of carnosol. Cells were lysed at indicated time point and protein levels were measured by western blot analysis. (FIG. 7A) Western blot for IκB protein level in HaCaT cells at 2, 4 h post UVB radiation at 1, 10 or 20 μM carnosol treatment. (FIG. 7B) Western blot analysis for IκB protein level in HaCaT cells at 6 h post UVB radiation in the presence or absence of carnosol. (FIG. 7C) Western blot analysis for IκB protein level in MEF cells at 6 h post UVB radiation in the presence or absence of carnosol. (FIG. 7D) Western blot for 5276 site phosphorylation of NF-κB in HaCaT cells at 6 h post UVB with indicated carnosol concentration. (FIG. 7E) EMSA assay for HaCaT cells at 2, 4, 6 h post UVB radiation in the presence or absence of carnosol (20 μM). (FIG. 7F) Statistical analysis of the EMSA assay using two to three sets of independent experiments. *p<0.05 versus control group, **p<0.05 versus UV group at indicated time point.\nA 22-bp synthetic oligonucleotide (5′-[…]-3′) [SEQ ID NO:1] containing the specific NF-κB-binding site was annealed and labeled with γ-^32P-ATP using T4 polynucleotide kinase. A DNA-binding reaction mixture of total 20 μL containing poly(dI:dC), labeled probe, binding buffer (10 mM pH 8.0 Tris HCl, 150 mM KCl, 0.5 mM EDTA, 0.1% Triton-X 100, 12.5% Glycerol and 0.2 mM DTT) and 10 jag of cell nuclear extract was incubated at room temperature for 30 min and loaded onto a 5% nondenaturing polyacrylamide gel for electrophoresis. The gel was run in 0.5×TBE buffer at 120 V, transferred to a double layer of Whatman paper and dried on a gel dryer for 45-60 mM at 76° C. The dried gel was used to expose an autoradiography film (Denville) at −80° C. and the NF-κB bound ^32P-labeled DNA was detected, and the band intensity was analyzed by Image J."}, "[2]": {"test_system": "cyclobutane pyrimidine dimer (CPD) formation", "test": "Quantitative measurement of CPD formation after UVB", "assay_type": "cell-based", "details": "with vs without carnosol", "from_the_text": "FIG. 5E: Quantitative measurement of cyclobutane pyrimidine dimer (CPD) formation, with and without UVB, and with and without carnosol. *p<0.05 versus corresponded control group, **p<0.05 versus corresponded UV group.\nThere are two major forms of DNA damage caused by UVB radiation: one is the direct DNA damage which forms CPD; the other is the oxidation-caused DNA damage, which causes the formation of 6-4 PP. In order to identify which form of DNA damage is protected by carnosol, a quantitative assay to identify the production of both DNA damage products after UVB radiation with or without carnosol treatment was performed."}, "[3]": {"test_system": "p-Chk", "test": "Immunostaining of p-Chk in HaCaT cells upon UVB radiation", "assay_type": "cell-based, Human", "details": "immunofluorescence", "from_the_text": "FIG. 5C: Immunostaining of p-Chk in HaCaT cells upon UVB radiation with or without carnosol treatment. P-Chk was stained with green fluorescent, while nucleus was stained by DAPI. Scale indicates 20 μm.\nBoth human keratinocyte (HaCaT) and mouse embryonic fibroblast (MEF) cells were used, and the protein levels of γH2AX and phosphor-Chk were used as DNA damage marker. […] Similar results are observed in MEF cells as both the phosphorylation level of H2AX and Chk reduced at early stage post UVB radiation (FIG. 5B). […] To further show the protection effect of carnosol on UVB-irradiated cell, a comet assay was performed. […] Thus, carnosol ast least partially protect the DNA damage from UVB radiation."}, "[4]": {"test_system": "A431 human squamous carcinoma cell", "test": "Clonogenic assay, A431", "assay_type": "cell-based", "method": "FIGS. 9A-9B. Carnosol decreases A431 cancer cell progression. Squamous carcinoma cell A431 was used to determine the effect of carnosol on cancer cell progression. (FIG. 9A) Effect of carnosol on cell viability. Cells were treated upon 50 mJ/cm^2 UVB radiation with or without carnosol treatment. After 24 h, cells were collect and MTT assay was performed to determine the cell viability. *p<0.05 versus control group, **p<0.05 versus UV group at indicated time point. (FIG. 9B) Effect of carnosol on clonogenic assay. Cells were exposed to 8 mJ/cm^2 UVB exposure in the presence or absence of carnosol. 5×10^3 cells were plated into 6 well plate immediately after treatment and incubated for […]. The error bars present the standard deviation of three sets of independent experiments. *p<0.05 versus control group, **p<0.05 versus UV group at indicated time point.\nImmediate after treatment, cells were harvested with 0.25% trypsin-EDTA and counted, and then 5×10^3 cells were plated in 6-well plates. After 6 days, cells were fixed with cold methanol for 10 mM at […] and then stained by 1% crystal violet in 25% methanol for 10 mM. Cells were then rinsed with distilled water and colonies with a size greater than 0.4 mm were counted by Kodak IS in vivo F system equipped with Kodak Molecular Imaging Software (Eastman Kodak)."}, "[5]": {"test_system": "phosphor-Chk", "test": "Western blot of DNA damage marker, HaCaT cells", "assay_type": "cell-based, Human", "details": "15 min and 1 h post UVB 50 mJ/cm^2", "method": "(§1) FIGS. 5A-5B: Carnosol protects UVB-induced DNA damage. (FIG. 5A) HaCaT cells and (FIG. 5B) MEF cells were exposed to 50 mJ/cm^2 UVB radiation in the presence or absence of carnosol. Cells were lysed at indicated time point and protein levels of phosphorylated H2AX and Chk were measured. The data represents three sets of independent experiments.\n(§2) Cells were lysed with Nonidet P-40 (NP-40) lysis buffer (2% NP-40, 80 mM NaCl, 100 mM Tris-HCl pH 8.0, 0.1% SDS) with proteinase inhibitor mixture (Complete™, Roche Molecular Biochemicals) at indicated time point. Cell lysate was incubated on ice for 15 min and then centrifuged at 14,000 rpm at 4° C. for 15 min. Protein concentration was measured by Protein DC Assay kit (Bio-Rad Laboratories). Equal amounts of protein were subjected on SDS-PAGE and transferred to a nitrocellulose membrane. The membrane was then blocked in 5% milk in Tris buffered saline plus Tween 20 ® (TBST) for 45 min and probed with anti-yH2AX (Cell Signaling), anti-pCHK (Cell Signaling), anti-p276-NF-κB (Santa Cruz), anti-NF-κB p65 (Santa Cruz), anti-IκB (Santa Cruz), or anti-β-actin (Santa Cruz) at 4° C. overnight. After washing with TBST, the membrane was incubated with corresponding HRP-conjugated anti-rabbit or anti-mouse antibody for 45 min at room temperature. […]"}, "[6]": {"test_system": "γH2AX (phosphorylated H2AX)", "test": "Western blot of DNA damage marker, HaCaT cells", "assay_type": "cell-based, Human", "details": "15 min and 1 h post UVB 50 mJ/cm^2", "method": "as §1, §2"}}}
{"smiles": "CC(C)c1cc2c(c(O)c1O)[C@@]13CCCC(C)(C)[C@@H]1C[C@@H]2OC3=O", "note": "[carnosol]", "values": [{"measurement": "NF-κB activity (DNA binding, EMSA)", "setting": "[1]; 2 h post UVB, UVB alone induced by 20%", "value": "no statistically significant change"}, {"measurement": "NF-κB activity induction (EMSA)", "setting": "[1]; 4 h post UVB", "value": 2.2, "unit": "fold"}, {"measurement": "NF-κB activity induction (EMSA)", "setting": "[1]; 6 h post UVB", "value": 1.5, "unit": "fold"}, {"measurement": "formation of CPD after UVB radiation", "setting": "[2]", "value": "almost by half"}, {"measurement": "UVB-induced expression level of p-Chk in nucleus", "setting": "[3]", "value": "significantly reduce"}, {"measurement": "effect of double treatment on reduction of cancer cell survival", "setting": "[4]; A431, carnosol and UVB radiation together", "value": "synergistic effect"}, {"measurement": "colony formation", "setting": "[4]; A431, carnosol combined with 8 mJ/cm^2 UVB, UVB alone about 43%", "value": "about 17%"}, {"measurement": "colony formation rate", "setting": "[4]; A431, carnosol treatment alone", "value": "about 65%"}, {"measurement": "phosphorylation level of Chk", "setting": "[5]", "value": "significantly reduced"}, {"measurement": "phosphorylation level of H2AX", "setting": "[6]", "value": "significantly reduced"}]}
